The values that follow come from article PMC7843569, “Metagenomic identification, purification and characterisation of the Bifidobacterium adolescentis BgaC β-galactosidase” (Applied Microbiology and Biotechnology, 2021).

Broadly, the Ki is a dissociation constant, usually derived from enzyme kinetics or from competition with a known ligand. Broadly, the Km is the concentration of substrate that gives half-maximal velocity.

Data set [1] deals with T1, BgaC β-galactosidase (BAD_1582) (Bifidobacterium adolescentis, UniProt A1A3T0). Put plainly: purified enzyme; glucose-release kinetics (Km […]) and competitive inhibition of ONPG hydrolysis. The class given is biochemical.
Data set [2] deals with T1, BgaC β-galactosidase (BAD_1582). The data set is described as follows: purified enzyme hydrolysis, specific activity, absorbance at […] nm; TLC. Type of data set: biochemical.
Substrate in the data set “purified protein”: O=[N+]([O-])c1ccccc1O[C@@H]1O[C@H](CO)[C@H](O)[C@H](O)[C@H]1O
The data set is described as follows: purified protein. Particulars: divalent metal ion (Mg2+ gives maximum activity) enzyme active site.

As for `OC[C@H]1O[C@@H](O[C@H]2[C@H](O)[C@@H](O)C(O)O[C@@H]2CO)[C@H](O)[C@@H](O)[C@H]1O` (stereo partly drawn) [lactose], in data set [1], the Ki turned out to be 100 µM.

As for `O=[N+]([O-])c1ccc(O[C@@H]2O[C@H](CO)[C@H](O)[C@H](O)[C@H]2O)cc1` [pNPG], in data set [2], the “purified enzyme hydrolysis, specific activity, absorbance at 420 nm; TLC” value came to 112 µmol/min/mg.

B1: BgaC β-galactosidase (BAD_1582) (Bifidobacterium adolescentis ATCC 15703) (protein)
chain: MADTAELAIVHATTASASWLTDPTVFAANRKPAHSSHRYVIGETREPKQSLDGEWKVRIEQARNVDVESAPFAAVDFEDGDFGAIEVPGHLQMAGYLKNKYVNIQYPWDGHEDPQAPNIPENNHVAIYRRRFALDAQLARTLENDGTVSLTFHGAATAIYVWLDGTFVGYGEDGFTPSEFDVTEALRNGNGNAADSPEAEHTLTVACYEYSSASWLEDQDFWRLHGLFRTVELAAQPHTHVETVQLEADYTAADTAGTADTAELNAALTLRNPADAMTIESTLRDGDGNVVWESTQACNGEIALNSGKMTNIAPWSAESPTLYTLTVRVVGHDGAIIETVTQKIGFRTFRIENGIMTINGKRIVFKGADRHEFDAKRGRAITREDMLSDVVFCKRHNINAIRTSHYPNQEYWYDLCDEYGLYLIDETNMETHGTWVANNVERPEDGIPGSRPEWEGACVDRINSMMRRDYNHPSVLIWSLGNESSAGEVFRAMYRHAHTIDPNRPVHYEGSVHMREFEDVTDIESRMYAHADEIERYLNDGSPAHTDGPKKPYISCEYMHAMGNSCGNMDEYTALERYPMYQGGFIWDFIDQAIETKLPDGTTRMCYGGDFGDRPSDYEFSGDGLLFADRTPSPKAQEVKQLYANVKIAVSVDEARITNDNLFVSTGDYRFVLRILADGKPVWSTTRRFDVAAGESASFEVDWPVDDYRSNAEELVLEVSQQLGNACDWAPAGYELAFGQCVVAGAKTTADAVDAAGAPADGTVTLGRWNAGVRGQGREALFSRTQGGMVSYTFGEREFVLRRPSITTFRPLTDNDRGAGHAFERAAWAVAGKYARCVDCAIANRGENAVEATYTYELAIPQRTKVTVRYVADTAGLVSLDVEYPGEKNGDLPTIPAFGIEWALPVEYANLRFYGAGPEETYADRRHAKLGVWSTTAGDDCAPYLLPQETGNHEDVRWAEITDDSGHGVRVKRGAGAKPFAMSLLPYSSTMLEEALHQDELPKPRHMFLRLLAAQMGVGGDDSWMSPVHEQYQLPADQPLSLNVQLKLF
In the case of B1, the Km in the data set “purified protein” is recorded as 2.5 mM.
